# Experiments:
# HMGB‐1 = experiment: Immunofluorescence staining of HMGB-1 (release) in CT26 cells; type: cell-based, mouse; settings: CT26, compounds at IC50, illumination at 740 and 770 nm
# Procedure: (§1) Scientific, Catalog no.15 5411) at a d ensity of 8,00 0 cells p er well and cultu red fo r 24 h at 37 °C with 5 % CO2. T he cells wer e then treated with a solution of the compounds at a concentration corresponding to the IC50 for 4 h. After refreshing the medium, cells were subjected to irradiation and incubated for an additional 12 h. Subsequently, the cells were fix ed with 4% paraformaldehyde and immunostained with Anti- Calreticulin antibody (Abcam, Catalog no. ab2907) diluted 1/1000 at 4 °C overnight. Cells were then washed three times with PBS, treated with Goat Anti- Rabbit IgG H&L (Alexa […]
# (§2) temperature in the dark, washed in PBS and treat ed with 10 µg/mL Hoechst for 15 min.
# After a final wash, cells were analyzed by confocal microscopy as det ailed above.
# Immunofluorescence st aining of HMGB-1
# CT26 or MCA205 cells were seeded in Lab -Te k ® Chambered Coverglass System (Thermo Fisher Scientific, Catalog no.155411) at a density of 8,000 cells per well and cultured for 24 h at 37 °C with 5% CO2. The cells were then treated with a solution of the compounds at a concentration corresponding to the IC50 for 4 h. After refreshing the medium, cells were subjected to irradiation and incubated for an additional 12 h.
# Subsequently, the cells were fixed with 4% paraformaldehyde, perm eabilized with 0.2% Triton X-100 and immunostained using anti-HMGB1 antibody [EPR3507] […]
# ATP release = experiment: Detection of extracellular ATP in CT26 cells; type: cell-based, mouse; settings: CT26, irradiated at 740 nm
# Procedure: We finally measured ATP release, another important event in ICD, using a bioluminescence detection kit (Figure 3E).
# as §1, §2
# After a final wash, cells were analyzed by confocal microscopy as det ailed above. […]
# incubated for 24 h. Cells were then treat ed with the determined IC50 of complexes and irradiated or kept in the dark. Supernatants were collected 12 h post-t reatm ent, and the extracellular ATP content was measured with Adenosine 5′ -triphosphate (ATP) Bioluminescent Assay Kit (Sigma-Aldrich) according tomanufacturer ’s ins truction. […]
# 556419) and PI (BD Biosciences, Catalog no.51- 66211E). CT26- luc cells were analyzed by flow cytometry (Beckm an Coulter Life Sciences, CytoFLEX LX Flow Cytometer). […]
# CT26‐luc cells = experiment: In vivo vaccination and rechallenge, CT26-luc model; design: species or system BALB/c mice
# Procedure: The ability to stimulate ICD in vivo was evaluated using a CT26‐luc vaccination and rechallenge model, following the gold‐standard method (Figure 5A). The mice were randomly assigned to groups and injected subcutaneously on the left flank with PBS solution, CT26‐luc cells pre‐treated with either 600 µM Cisplatin in the dark, 6.5 µM Ce6, or 1.8 µM Os2 upon 740 nm LED light irradiation (60 min, 12.6 J cm^−2). After 7 days, all the mice were rechallenged by subcutaneous injection of untreated live CT26‐luc cells on the right flank. […] However, by day 15, tumors in the PBS‐treated (control) group grew rapidly, reaching an average tumor volume of 717 ± 190 mm^3.
# The BALB/c female mice were randomly divided into 4 groups with each group containing 5 mice, which were named as Control group, Cisplatin group, Ce6 group and Os2 group. CT26-luc cells wer e treat ed in vitro with 600 µM Cisplatin in the dark, 6.5 µM Ce6 or 1.8 µM Os2 upon 740 nm LED light irradiation (60 min, 12.6 J cm-2) following the methods described above. Subsequently, treated CT26-luc cells (3×10^5 cells in 100 µ L sterile PBS) or 100 µ L sterile PB S were injected subcutaneously into the left flank of each mouse. One week later, mice were r echalleng ed by injection with untreated CT26- luc cells (1×10^6 cells in 100 µL sterile PBS). The mice were monitored by an in vivo imaging system (Biospace Lab, Photon Imager Optima) and the tumor volume was calculated with the following equation: tumor volume = width 2 × length × […]
# In vivo vaccination study on MCA205 cells
# The C57BL/6 mice were randomly divided into 5 groups with each group containing 10 mice, whi ch w ere nam ed as Control group, Cisplatin group, Oxaliplatin group, Ce6 group and Os2 group. M CA205 cells were treated in vitro with 500 µM Cisplatin o r 1400 µM Oxaliplatin in the dark, 5.5 µM Ce6 or 3 µM Os2 upon 740 nm LED light irradiation (60 min, 12.6 J cm-2) following the methods described above. […] The tumor volume was calculated with the following equation: tumor volume =
smiles,measurement,setting,value
"C=Cc1c(C)c2cc3nc(c(CC(=O)O)c4[nH]c(cc5nc(cc1[nH]2)C(C)=C5CC)c(C)c4C(=O)O)[C@@H](CCC(=O)O)[C@@H]3C [Ce6, chlorin e6]",HMGB‐1 release,HMGB‐1,a minority
same,ATP release,ATP release,significantly enhanced ATP release
same,Mice with tumors completely ablated,"CT26‐luc cells; by day 40, n = 5 per group",one mouse
same,"Tumor volume, times smaller than control group","CT26‐luc cells; day 15 after rechallenge, vaccination with CT26‐luc cells pre-treated with 6.5 µM Ce6 or 1.8 µM Os2 + 740 nm",1.7
same,Survival,"CT26‐luc cells; up to 40 days after rechallenge, compared to the other groups",prolonged survival periods
